Molecules are shown by their SMILES.

With `FC1(F)CCNCC1`, the pKa amounted to 8.5. Regarding `NCC(F)F`, the pKa is 7.3. Turning to `FC1CCCNC1` (stereo not drawn), the pKa is 9.3. `FC(F)(Cc1c[nH]c2ccc(-n3cnnc3)cc12)CN1CCC(Cc2ccccc2)CC1` returned a pKa of 6.7. `CN(C)C(C)(C)CCCc1ccc(C(C)(C)C)cc1`: the pKa was 10.4. In turn, `CC(=O)N1CCNCC1` returned a pKa of 7.9. Take `CCCCN`: the pKa came out at 10.7. Molecule `NCCCF` came in with a pKa of 9.9. As to `FC1(F)CCCNC1`, the pKa was 7.4. For the molecule `CN(C)C`, the pKa came out at 9.8. The figure for `NCCC(F)(F)F` is 8.7; for `CCCCN(C)C` it is 10.2. `CN1CCCCC1` had a pKa of 10.1. `CN(C)CCCC(C)(C)c1ccc(C(C)(C)C)cc1` returned a pKa of 9.8. The molecule `CN(C)CC(F)(F)F` registered a pKa of 4.8. `FC1CCNCC1` yielded a pKa of 9.4.

As for `CN(C)CC(C)(C)CCc1ccc(C(C)(C)C)cc1`, the pKa is 9.4. In turn, `CN(C)CCCCc1ccc(C(C)(C)C)cc1` displayed a pKa of 9.9. For the molecule `FC1(Cc2ccccc2)CCN(CCCc2c[nH]c3ccc(-n4cnnc4)cc23)CC1`, the pKa worked out at 8.8. Molecule `NCCCC(F)(F)F` registered a pKa of 9.7. Molecule `c1ccc(CC2CCN(CCCc3c[nH]c4ccc(-n5cnnc5)cc34)CC2)cc1` had a pKa of 9.7. As for `FC(Cc1c[nH]c2ccc(-n3cnnc3)cc12)CN1CCC(Cc2ccccc2)CC1` (stereo not drawn), the pKa worked out at 8.7. The molecule `CCN(C)C` gave a pKa of 10.2.
